Data from PMC5298231, “The Malaria Parasite's Lactate Transporter PfFNT Is the Target of Antiplasmodial Compounds Identified in Whole Cell Phenotypic Screens” (PLoS Pathogens, 2017).
Values joined by “and” are separate entries in the source; they are usually repeats but may differ in a detail not shown here. Identical values can stand only once. Counter-ions that a name gives are not always drawn. Peptide text beside a SMILES is read from it.

Tested on: erythrocytes infected with 3D7 trophozoites
Assay type: cell-based, Plasmodium falciparum
Details: sheet Ratio; for Ratio of metabolite abundance, Exp1_1hr: Exp1, 1hr; for Ratio of metabolite abundance, Exp1_3hr: Exp1, 3hr; for Ratio of metabolite abundance, Exp1_6hr: Exp1, 6hr; for Ratio of metabolite abundance, Exp2_1hr: Exp2, 1hr; for Ratio of metabolite abundance, Exp2_3hr: Exp2, 3hr; for Ratio of metabolite abundance, Exp2_6hr: Exp2, 6hr; for Ratio of metabolite abundance, Exp3_1hr: Exp3, 1hr; for Ratio of metabolite abundance, Exp3_3hr: Exp3, 3hr; for Ratio of metabolite abundance, Exp3_6hr: Exp3, 6hr

Compound | Ratio of metabolite abundance, Exp1_1hr | Ratio of metabolite abundance, Exp1_3hr | Ratio of metabolite abundance, Exp1_6hr | Ratio of metabolite abundance, Exp2_1hr | Ratio of metabolite abundance, Exp2_3hr | Ratio of metabolite abundance, Exp2_6hr | Ratio of metabolite abundance, Exp3_1hr | Ratio of metabolite abundance, Exp3_3hr | Ratio of metabolite abundance, Exp3_6hr
O=C(O)CCC(O)C(=O)O (stereo not drawn) [2-Hydroxyglutarate] | 0.7468 | 0.6009 | 0.699 | 0.8783 | 0.8007 | 0.7015 | 0.9193 | 0.5841 | 0.9208
O=C(O)CCC(=O)C(=O)O [2-Ketoglutarate] | 0.5638 | 0.5076 | 0.5229 | 1.061 | 0.5178 | 0.7675 | 0.6752 | 0.6868 | 0.9353
O=C(O)[C@H](O)COP(=O)(O)O [3-Phosho-D-glycerate] | 0.9975 | 1.1161 | 1.013 | 1.017 | 0.9815 | 1.001 | 0.9949 | 1.065 | 1.039
N[C@@H](COP(=O)(O)O)C(=O)O [3-Phospho-serine] | 0.7768 | 0.7478 | 0.6073 | 1.092 | 0.7496 | 0.7836 | 0.6617 | 0.7708 | 0.5594
NCCCC(=O)O [4-Aminobutanoate] | 3.908 | 0.7769 | 1.748 | 3.257 | 2.342 | 1.761 | 0.9389 | 3.211 | 3.145
O=P(O)(O)OC[C@H]1OC(OP(=O)(O)OP(=O)(O)O)[C@H](O)[C@@H]1O (stereo partly drawn) [5-Phosphoribosyl-1-pyrophosphate] | 1.134 | 1.199 | 1.224 | 2.035 | 1.2624 | 1.3078 | 0.8985 | 1.899 | 1.985
O=C(O)[C@H](O)[C@@H](O)[C@H](O)[C@H](O)COP(=O)(O)O [6-Phospho-D-gluconate] | 1.0502 and 0.8295 | 0.8826 and 0.6724 | 0.7609 and 0.6355 | 0.8989 and 0.6621 | 0.8049 and 0.5841 | 0.8315 and 0.5366 | 0.955 and 0.8159 | 0.8757 and 0.6904 | 0.7181 and 0.6347
Nc1ncnc2c1ncn2[C@@H]1O[C@H](COP(=O)(O)OP(=O)(O)O)[C@@H](O)[C@H]1O [ADP] | 0.7745 | 0.4477 | 0.5852 | 1.167 | 0.7455 | 0.8713 | 0.9108 | 0.6751 | 1.045
Nc1ncnc2c1ncn2[C@@H]1O[C@H](COP(=O)(O)O)[C@@H](O)[C@H]1O [AMP] | 0.6651 | 0.4095 | 0.7534 | 1.745 | 0.5002 | 0.6205 | 1.254 | 1.491 | 1.967
CC(C)C[C@H](NC(=O)[C@@H](NC(=O)[C@H](C)N)[C@@H](C)O)C(=O)N[C@@H](CO)C(=O)O [ATLS] (H-ATLS-OH) | 1.05 | 0.6654 | 0.8386 | 1.031 | 0.8993 | 0.9335 | 1.05 | 1.026 | 0.9156
Nc1ncnc2c1ncn2[C@@H]1O[C@H](COP(=O)(O)OP(=O)(O)OP(=O)(O)O)[C@@H](O)[C@H]1O [ATP] | 0.9749 | 0.855 | 0.8179 | 0.9538 | 0.8859 | 0.784 | 0.9549 | 0.8395 | 0.7365
CC(=O)SCCNC(=O)CCNC(=O)[C@H](O)C(C)(C)COP(=O)(O)OP(=O)(O)OC[C@H]1O[C@@H](n2cnc3c(N)ncnc32)[C@H](O)[C@@H]1OP(=O)(O)O [Acetyl-CoA] | 0.7257 | 0.4303 | 0.3828 | 0.6969 | 0.7538 | 0.6508 | 0.7524 | 0.685 | 0.5138
CC(=O)N[C@@H](C)C(=O)O [Acetyl-L-alanine] | 1.844 | 0.6703 | 0.7764 | 1.062 | 0.5861 | 0.7816 | 0.7593 | 1.204 | 0.7219
NCCOP(=O)(O)OP(=O)(O)OC[C@H]1O[C@@H](n2ccc(N)nc2=O)[C@H](O)[C@@H]1O [CDP-ethanolamine] | 1.165 | 0.8992 | 0.8287 | 1.33 | 1.135 | 1.07 | 1.146 | 1.029 | 0.9178
Nc1ccn([C@@H]2O[C@H](COP(=O)(O)OP(=O)(O)O)[C@@H](O)[C@H]2O)c(=O)n1 [CDP] | 1.235 | 0.632 | 0.653 | 1.081 | 0.7109 | 1.157 | 0.7322 | 0.673 | 0.7355
Nc1ccn([C@@H]2O[C@H](COP(=O)(O)O)[C@@H](O)[C@H]2O)c(=O)n1 [CMP] | 1.383 | 1.267 | 1.102 | 0.8705 | 0.5442 | 1.311 | 1.179 | 1.206 | 1.249
Nc1ccn([C@@H]2O[C@H](COP(=O)(O)OP(=O)(O)OP(=O)(O)O)[C@@H](O)[C@H]2O)c(=O)n1 [CTP] | 0.8417 | 0.6895 | 0.6055 | 0.8987 | 0.9317 | 0.7353 | 0.7379 | 0.8137 | 0.693
CC(C)CCC[C@@H](C)[C@H]1CC[C@H]2[C@@H]3CC=C4C[C@@H](OS(=O)(=O)O)CC[C@]4(C)[C@H]3CC[C@]12C [Cholesteryl sulfate] | 0.8398 | 0.919 | 0.8716 | 0.7894 | 1.057 | 0.9329 | 0.813 | 0.7802 | 0.8279
CC(C)(COP(=O)(O)OP(=O)(O)OC[C@H]1O[C@@H](n2cnc3c(N)ncnc32)[C@H](O)[C@@H]1OP(=O)(O)O)[C@@H](O)C(=O)NCCC(=O)NCCS [CoA] | 0.7833 | 0.6851 | 0.6052 | 0.7277 | 0.6878 | 0.6949 | 0.705 | 0.6678 | 0.6155
O=C1O[C@H]([C@H](O)CO)[C@H](O)[C@H]1O [D-Glucono-1-4-lactone] | 3.064 | 5.2964 | 6.162 | 1.636 | 4.1814 | 4.766 | 5.473 | 2.843 | 3.44
